Reference: patent US20180292390A1 (priority 2015, published 2018)
Like-named read-outs stand apart in the source and are kept apart here.

Key:
[1] = tested on: astrocytes in mouse brain organotypic cultures; conditions: 450 μM histamine; for GFAP-positive astrocytes (GFAP expression): 1 hr, 2 mm MBO
Experimental: (§1) Primary mouse brain organotypic cultures were prepared as described previously ((Levin et al., Brain Res. 1298, 194-207, 2009). Briefly, the brains were removed from C57BL/6 mice (n=8) and cut to either 1 mm or 2 mm thickness using a tissue chopper. The brain slices were then placed in medium containing 25% inactivated horse serum, 25% Hanks' BSS, 50% DMEM, and 25 mg/l penicillin-streptomycin (Invitrogen, Carlsbad, Calif.) in 6-well culture dishes and maintained for 30 min at room temperature. The brain slices were then moved to either fresh media (control) or fresh media containing 450 μM histamine (Sigma, Saint Louis, Mo., Cat. No. H7125-1G) in 6-well culture dishes for 1 hr at 37° C. in a 5% CO2-enriched atmosphere. The brain slices were fixed with 4% paraformaldehyde (PFA) in PBS at room temperature and processed for immunohistochemistry as described below.
(§2) The mouse brain organotypic brain slices were stored in 4% PFA overnight at 4° C. The brain slices were then infiltrated with 10% sucrose in PBS for 2 hours, followed by 30% sucrose in PBS overnight at 4° C. under constant, gentle agitation. Using a Leica cryostat, 12 μm thick frozen sections were cut, mounted onto Fisher Super Frost Plus slides, and air dried. Immunohistochemistry for the paraffin-embedded tissues was carried out using procedure well known in the art. Briefly, tissues were deparaffinized using xylene and then rehydrated through a graded series of decreasing concentrations of ethanol. Next, protein antigenicity was enhanced by microwaving sections in citrate buffer. The paraffin-embedded tissues were then processed in the same way as the frozen sections described below.
(§3) Immunohistochemistry for the frozen sections was carried out as previously described ((Levin et al., Brain Res. 1298, 194-207, 2009). Briefly, tissues were rehydrated with PBS for 2 min. The endogenous peroxidase was quenched by treating sections with 0.3% H202 for 30 min. First, sections were incubated in blocking serum for 30 min. at room temperature, and then treated with primary antibodies at appropriate dilutions for 1 hr at room temperature. Next, sections were thoroughly rinsed with PBS, and sections were incubated with biotin-labeled secondary antibody for 30 min. at room temperature. Sections were then treated with the avidin-peroxidase-labeled biotin complex (ABC, Vector Labs, Foster City, Calif.) and visualized by treating with either 3-3-diaminobenzidine-4-HCL (DAB)/H2O2 (Biomeda, Foster City, Calif.) or NovaRed (Vector Labs, Foster City, Calif., Cat. No. SK-4800). Sections were then lightly counterstained with hematoxylin, dehydrated through increasing concentrations of ethanol, cleared in xylene and mounted in Permount. Specimens were examined and photographed with a Nikon FXA microscope, and digital images were recorded using a Nikon DXM1200F digital camera and processed using Image Pro Plus (Phase 3 Imaging, Glen Mills, Pa.) image software.
(§4) Leaky and non-leaky vessels, GFAP-positive and -negative astrocytes, and vimentin-positive and -negative neurons were counted in sections of primary mouse brain organotypic culture slices. Images were optimized and counting was performed using the counting feature of Adobe Photoshop CS3. Three sections were examined per treatment group, with at least ten viewing fields counted from each section, for a total of 30 viewing fields per treatment group. Only blood vessels with endothelial cell nuclei, astrocytes with their nuclei, and neurons with their nuclei within the plane of section were included in the count. […] The percentage of total leaky vessels, GFAP-positive astrocytes, and vimentin-positive neurons for histamine treated and control slices were determined.
(§5) Immunohistochemistry (IHC) was used to evaluate the effects of histamine on BBB permeability and the response of cells within the surrounding brain parenchyma.

[2] = tested on: BBB (blood vessels) in mouse brain organotypic cultures; conditions: 450 μM histamine; for blood vessel leakage: 1 hour; for percentage of leaky vessels (IgG extravasated out of blood vessels): 2 mm MBO
Experimental: as §1, §2, §3, §4, §5

[3] = tested on: neurons in mouse brain organotypic cultures; conditions: 450 μM histamine; for vimentin-positive neurons: 2 mm MBO
Experimental: as §1, §2, §3, §4, §5

[4] = tested on: BRB in retinal slice cultures; assay: IgG immunostaining of retinal slice cultures: BRB breach; assay type: cell-based; conditions: for IgG in neurons (indicator of BRB breach): retinal slices treated with histamine with or without lipoxin A4, FIG. 10
Source text: Untreated samples served as control. The slices were then processed to generate cryosections for immunostaining. The location of IgG (an indicator of BRB breach) was monitored by immunostaining.

[5] = tested on: MAP2 expression in retinal slices; conditions: retinal slices treated with histamine 0, 30, 60 or 90 min, FIG. 9
Source text: (§6) The slices were then processed to generate cryosections for immunostaining.

[6] = tested on: GFAP expression in retinal slices; conditions: retinal slices treated with histamine 0, 30, 60 or 90 min, FIG. 8
Source text: as §6

[7] = tested on: Muller cell processes; assay: GFAP immunostaining of ex vivo retinal culture: Muller cell processes; assay type: cell-based; conditions: retina untreated, histamine only, LXA4 only, or both, FIG. 15
Experimental: This experiment followed the protocol of Example 1. This example illustrates a new analysis added for drug evaluation in ex vivo retinal culture. […] Statistical significance is determined by two-tailed Student's t test. *, P<0.05; **, P<0.01; ***, P<0.001. Mean±SEM is plotted in the graph.

[8] = tested on: retinal neurons; assay: SV2 and MAP2 immunostaining of retina of pertussis toxin treated mice; assay type: in vivo; conditions: pertussis toxin treated wild type mice
[9] = tested on: BBB, mouse brain; assay: IgG immunostaining of brain cortex of PT-treated mice: BBB compromise; assay type: in vivo
Source text: This experiment followed the protocol of Example 1. This experiment involved S100B knockout (KO) mice, focusing on age-dependent increase of blood-brain barrier permeability and neuron-binding autoantibodies in SB100KO mice. […] Overlay of IgG immunostaining (red) with DAPI (blue) is presented from cortical region of the brain. (FIG. 18A) In untreated wild type (WT) brains, IgG-positive staining was confined to the microvasculature, indicating intact blood vessels (arrows). […] (FIG. 18C). In the S100BKO mouse brain (KO), even without PT treatment, IgG-positive leaks (marked by white dotted circle) were observed. (FIG. 18D).

NCCc1c[nH]cn1 [histamine]
astrocyte activation ([1]; 1 hour, 1 mm MBOs): 47.7%
GFAP expression by astrocytes ([1]; 1 hour, 2 mm MBOs): 45.7%
GFAP-positive astrocytes (GFAP expression) ([1]; distal portion): 48.4%
GFAP-positive astrocytes (GFAP expression) ([1]; middle portion): 45.1%
GFAP-positive astrocytes (GFAP expression) ([1]; proximal portion): 43.6%
blood vessel leakage ([2]; 1 mm MBOs): 30.9%
blood vessel leakage ([2]; 2 mm MBOs): 24.4%
percentage of leaky vessels (IgG extravasated out of blood vessels) ([2]; 1 hr, distal portion (700-1050 μm)): 32.4%
percentage of leaky vessels (IgG extravasated out of blood vessels) ([2]; 1 hr, middle portion (350-700 μm)): 24.7%
percentage of leaky vessels (IgG extravasated out of blood vessels) ([2]; 1 hr, proximal portion (0-350 μm)): 19.9%
perivascular leakage, histamine treated compared to controls, overall ([2]; 1 hr, MBO, FIG. 5A): more than two-fold
neuronal damage-responses ([3]; 1 hour, 1 mm MBOs): 51.8%
vimentin expression by neurons ([3]; 1 hour, 2 mm MBOs): 46.5%
vimentin-positive neurons ([3]; 1 hr, distal portion): 47.5%
vimentin-positive neurons ([3]; 1 hr, middle portion): 45.1%
vimentin-positive neurons ([3]; 1 hr, proximal portion): 47%
increase in neurons expressing vimentin compared to control sections ([3]; 1 hr, MBO, FIG. 5C): greater than four-fold
BRB integrity, location of IgG ([4]; retinal slices after histamine treatment, FIG. 7): BRB breakdown and extravasated IgG surrounding blood vessels
IgG in neurons (indicator of BRB breach) [4]: neurons were loaded with IgG
MAP2 expression [5]: decrease in MAP2 expression
GFAP expression [6]: elevation in GFAP expression
Muller cell processes (GFAP staining, width) [7]: Compromised

CCCCC[C@H](O)/C=C/C=C\C=C\C=C\[C@@H](O)[C@@H](O)CCCC(=O)O [LXA4, lipoxin A4]
IgG in neurons (indicator of BRB breach) [4]: conferred protection from these effects
Muller cell processes (GFAP staining, width) [7]: Rescued

Pertussis toxin [PT]
retinal neuronal damage by SV2 and MAP2 immunostaining [8]: displays retinal neuronal damages
IgG binding to neurons in brain cortex ([9]; S100BKO mice treated with PT, FIG. 18D): intensely bound by IgG
IgG-positive staining in brain cortex ([9]; wild type (WT) mice with PT treatment, FIG. 18B): IgG-positive microvascular leaks
